Assays:
CFTR = target: T1, CFTR (Homo sapiens, UniProt P13569, DEL508-508); experiment: TECC24 AUC fold over DMSO @10 μM, CFTR-mediated transepithelial chloride transport in CF-HBE cells; assay type: cell-based; conditions: test agent AUC divided by DMSO vehicle AUC, primary CF-HBE cells, ΔF508 homozygous donor, 48 hours incubation
T1 construct: Primary human bronchial epithelial cells from a ΔF508 homozygous CF donor; host or cells: primary human bronchial epithelial cells (CF-HBE), ΔF508 homozygous donor
T1 sequence (P13569 with tags, fused parts or gaps DEL508-508): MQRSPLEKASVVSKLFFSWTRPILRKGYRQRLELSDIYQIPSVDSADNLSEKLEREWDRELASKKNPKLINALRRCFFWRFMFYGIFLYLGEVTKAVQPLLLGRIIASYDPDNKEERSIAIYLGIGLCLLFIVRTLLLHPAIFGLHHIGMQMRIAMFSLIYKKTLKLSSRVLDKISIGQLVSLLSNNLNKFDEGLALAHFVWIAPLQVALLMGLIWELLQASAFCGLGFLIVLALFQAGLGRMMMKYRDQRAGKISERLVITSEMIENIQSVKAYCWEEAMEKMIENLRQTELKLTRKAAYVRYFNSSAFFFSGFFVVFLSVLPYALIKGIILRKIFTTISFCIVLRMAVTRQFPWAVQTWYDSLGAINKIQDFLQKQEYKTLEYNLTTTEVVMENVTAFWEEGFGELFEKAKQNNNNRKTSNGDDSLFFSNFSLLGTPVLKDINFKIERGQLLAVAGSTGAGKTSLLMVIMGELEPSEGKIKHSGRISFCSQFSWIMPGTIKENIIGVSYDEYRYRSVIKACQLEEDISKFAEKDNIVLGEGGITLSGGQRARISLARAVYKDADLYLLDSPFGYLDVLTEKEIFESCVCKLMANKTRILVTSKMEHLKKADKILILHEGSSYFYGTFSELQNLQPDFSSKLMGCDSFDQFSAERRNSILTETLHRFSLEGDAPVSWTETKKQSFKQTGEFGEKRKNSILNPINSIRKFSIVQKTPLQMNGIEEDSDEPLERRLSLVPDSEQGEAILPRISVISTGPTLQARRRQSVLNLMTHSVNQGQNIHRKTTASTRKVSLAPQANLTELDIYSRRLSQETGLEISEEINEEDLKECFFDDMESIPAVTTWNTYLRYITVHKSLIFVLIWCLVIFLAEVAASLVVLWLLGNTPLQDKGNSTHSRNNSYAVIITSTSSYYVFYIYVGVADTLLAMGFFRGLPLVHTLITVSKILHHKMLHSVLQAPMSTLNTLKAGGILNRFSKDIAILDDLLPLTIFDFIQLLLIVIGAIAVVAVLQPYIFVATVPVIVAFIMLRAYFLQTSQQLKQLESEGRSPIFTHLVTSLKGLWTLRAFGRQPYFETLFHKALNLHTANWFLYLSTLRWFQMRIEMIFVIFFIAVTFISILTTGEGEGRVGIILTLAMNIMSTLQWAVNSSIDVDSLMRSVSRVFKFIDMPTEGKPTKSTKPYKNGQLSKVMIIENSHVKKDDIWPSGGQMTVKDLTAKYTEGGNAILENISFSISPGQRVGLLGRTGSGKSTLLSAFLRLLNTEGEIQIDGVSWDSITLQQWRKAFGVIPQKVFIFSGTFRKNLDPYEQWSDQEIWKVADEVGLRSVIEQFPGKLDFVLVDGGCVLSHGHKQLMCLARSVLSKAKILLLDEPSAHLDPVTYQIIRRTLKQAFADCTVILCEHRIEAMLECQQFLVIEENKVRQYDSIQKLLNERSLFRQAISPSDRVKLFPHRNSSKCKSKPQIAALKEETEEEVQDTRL
Procedure, shortened: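 Primary ΔF508-homozygous CF bronchial epithelial cells on inserts were incubated 48 h at 36.5 °C with compound in IL-13-containing medium. VT and TEER were then recorded in current-clamp mode (pH 7.4 HEPES bath) with benzamil 10 μM, forskolin 10 μM, then CFTR inhibitor-172 20 μM. The IEQ AUC between forskolin and inhibitor was divided by vehicle AUC.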

NBD1 = target: T2, NBD1 (Homo sapiens, UniProt P13569); experiment: Aggregation analysis using differential static light scattering (DSLS), thermal stability of NBD1 (ΔTagg); assay type: binding; conditions: ΔTagg versus DMSO control, NBD1 0.2 mg/ml
T2 construct: Purified recombinant NBD1 was produced using previously described methods; made in house
T2 sequence (P13569 423-646 limits assumed): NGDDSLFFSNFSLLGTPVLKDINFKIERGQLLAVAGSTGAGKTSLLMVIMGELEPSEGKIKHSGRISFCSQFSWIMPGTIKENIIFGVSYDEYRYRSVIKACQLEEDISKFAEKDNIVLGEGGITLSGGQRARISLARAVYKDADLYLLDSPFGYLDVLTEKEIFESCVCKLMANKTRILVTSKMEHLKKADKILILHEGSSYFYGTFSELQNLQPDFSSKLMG
Procedure, shortened: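 NBD1 0.2 mg/ml, S200 buffer (50 mM Tris-HCl, 150 mM NaCl, 5 mM MgCl2, 2 mM ATP, 2 mM DTT, pH7.6) + 1% glycerol; cpd in DMSO; oil overlay. Ramp 25→70° C. at 1° C./min, DSLS images every 0.5° C. ΔTagg = Tagg (inflection) − mean DMSO Tagg.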

Compound: Cn1nc2nc1-c1cc(ccc1F)Oc1c(F)cc3[nH]ccc3c1Cc1ccnn1CCS(=O)(=O)CCC2(C)c1cccc(CCC(=O)O)c1 (stereo not shown) [Compound 99, 3-[3-(25,31-Difluoro-3,6-dimethyl-9,9-dioxo-27-oxa-9λ6-thia-3,4,12,13,22,33-hexazahexacyclo[26.3.1.12,5.012,16.018,26.019,23]tritriaconta-1(32),2(33),4,13,15,18,20,23,25,28,30-undecaen-6-yl)phenyl]propanoic Acid]
- TECC (AUC, 10 μM) (CFTR): A (a TECC value less than 12 is marked “A”)
- DSLS 3D (100 μM ΔT) (NBD1): A (an ΔTagg value less than or equal to 5 °C is marked “A”)

Compound: Cn1nc2nc1-c1cc(ccc1F)Oc1c(F)cc3[nH]ccc3c1CCS(=O)(=O)CC(C)(C)CCCC2(CO)c1cccc(CCC(=O)O)c1 (stereo not shown) [Compound 103, 3-[3-[22,28-Difluoro-6-(hydroxymethyl)-3,10,10-trimethyl-12,12-dioxo-24-oxa-12lambda6-thia-3,4,19,30-tetrazapentacyclo[23.3.1.12,5.015,23.016,20]triaconta-1(29),2(30),4,15,17,20,22,25,27-nonaen-6-yl]phenyl]propanoic Acid]
- TECC (AUC, 10 μM) (CFTR): A (a TECC value less than 12 is marked “A”)
- DSLS 3D (100 μM ΔT) (NBD1): C (a value greater than 10 °C and less than or equal to 25 °C is marked “C”)

Compound: Cn1nc2nc1-c1cc(ccc1F)Oc1c(F)cc3[nH]ccc3c1CCS(=O)(=O)CC(C)(C)CCCC2(C#N)c1cccc(CCC(=O)O)c1 (stereo not shown) [Compound 104, 3-[3-(6-Cyano-22,28-difluoro-3,10,10-trimethyl-12,12-dioxo-24-oxa-12lambda6-thia-3,4,19,30-tetrazapentacyclo[23.3.1.12,5.015,23.016,20]triaconta-1(29),2(30),4,15,17,20,22,25,27-nonaen-6-yl)phenyl]propanoic Acid]
- TECC (AUC, 10 μM) (CFTR): C (a value between 20 and 80 is marked “C”)
- DSLS 3D (100 μM ΔT) (NBD1): C (a value greater than 10 °C and less than or equal to 25 °C is marked “C”)

Compound: Cn1nc2nc1-c1cc(ccc1F)Oc1c(F)cc3[nH]ccc3c1CCS(=O)(=O)CC(C)(C)CCCC2(CF)c1cccc(CCC(=O)O)c1 (stereo not shown) [Compound 105, 3-[3-[22,28-Difluoro-6-(fluoromethyl)-3,10,10-trimethyl-12,12-dioxo-24-oxa-12lambda6-thia-3,4,19,30-tetrazapentacyclo-[23.3.1.12,5.015,23.016,20]triaconta-1(29),2(30),4,15,17,20,22,25,27-nonaen-6-yl]phenyl]propanoic acid]
- TECC (AUC, 10 μM) (CFTR): A (a TECC value less than 12 is marked “A”)
- DSLS 3D (100 μM ΔT) (NBD1): B (a value above 5 °C and less than or equal to 10 °C is marked “B”)

Compound: Cn1nc2nc1-c1cc(ccc1F)Oc1c(F)cc3[nH]ccc3c1CCS(=O)(=O)CC(C)(C)C(F)(F)CCC2(C)c1cccc(CCC(=O)O)c1 (stereo not shown) [Compound 106, 3-[3-(9,9,22,28-Tetrafluoro-3,6,10,10-tetramethyl-12,12-dioxo-24-oxa-12lambda6-thia-3,4,19,30-tetrazapentacyclo[23.3.1.12,5.015,23.016,20]triaconta-1(29),2(30),4,15,17,20,22,25,27-nonaen-6-yl)phenyl]propanoic Acid]
- TECC (AUC, 10 μM) (CFTR): A (a TECC value less than 12 is marked “A”)
- DSLS 3D (100 μM ΔT) (NBD1): C (a value greater than 10 °C and less than or equal to 25 °C is marked “C”)

Compound: Cn1nc2nc1-c1cc(ccc1F)Oc1c(F)cc3[nH]ccc3c1CCS(=O)(=O)CC(C)(C)/C(F)=C/CC2(C)c1cccc(CCC(=O)O)c1 (stereo not shown) [Compound 107, 3-[3-[(8Z)-9,22,28-Trifluoro-3,6,10,10-tetramethyl-12,12-dioxo-24-oxa-12lambda6-thia-3,4,19,30-tetrazapentacyclo-[23.3.1.12,5.015,23.016,20]triaconta-1(29),2(30),4,8,15,17,20,22,25,27-decaen-6-yl]phenyl]propanoic acid]
- TECC (AUC, 10 μM) (CFTR): A (a TECC value less than 12 is marked “A”)
- DSLS 3D (100 μM ΔT) (NBD1): C (a value greater than 10 °C and less than or equal to 25 °C is marked “C”)

Compound: CC(Cc1cccc(C2(C)CCS(=O)(=O)CC(C)(C)c3cnn(c3)Cc3c(c(F)cc4[nH]ccc34)Oc3ccc(F)c(c3)-c3nc2nn3C)c1)C(=O)O (stereo not shown) [Compound 110, 3-[3-(24,30-Difluoro-3,6,11,11-tetramethyl-9,9-dioxo-26-oxa-9lambda6-thia-3,4,14,15,21,33-hexazahexacyclo-[25.3.1.12,5.112,15.017,25.018,22]tritriaconta-1(31),2(33),4,12(32),13,17,19,22,24,27,29-undecaen-6-yl)phenyl]-2-methyl-propanoic Acid]
- TECC (AUC, 10 μM) (CFTR): C (a value between 20 and 80 is marked “C”)
- DSLS 3D (100 μM ΔT) (NBD1): B (a value above 5 °C and less than or equal to 10 °C is marked “B”)

Compound: Cn1nc2nc1-c1cc(ccc1F)Oc1c(F)cc3[nH]ccc3c1Cn1cc(cn1)C(C)(C)S(=O)(=O)CCCC2(C)c1cccc(CCC(=O)O)c1 (stereo not shown) [Compound 111, 3-[3-(24,30-Difluoro-3,6,11,11-tetramethyl-10,10-dioxo-26-oxa-10λ6-thia-3,4,14,15,21,33-hexazahexacyclo[25.3.1.12,5.112,15.017,25.018,22]-tritriaconta-1(31),2(33),4,12(32),13,17,19,22,24,27,29-undecaen-6-yl)phenyl]propanoic Acid]
- TECC (AUC, 10 μM) (CFTR): B (a value between 12-20 is marked “B”)
- DSLS 3D (100 μM ΔT) (NBD1): C (a value greater than 10 °C and less than or equal to 25 °C is marked “C”)

Compound: CC(Cc1cccc(C2(C)CCS(=O)(=O)CCS(=O)(=O)CCc3c(c(F)cc4[nH]ccc34)Oc3ccc(F)c(c3)-c3nc2nn3C)c1)C(=O)O (stereo not shown) [Compound 112, 3-[3-(22,28-Difluoro-3,6-dimethyl-9,9,12,12-tetraoxo-24-oxa-9lambda6,12lambda6-dithia-3,4,19,30-tetrazapentacyclo[23.3.1.12,5.015,23.016,20]triaconta-1(29),2(30),4,15,17,20,22,25,27-nonaen-6-yl)phenyl]-2-methyl-propanoic Acid]
- TECC (AUC, 10 μM) (CFTR): A (a TECC value less than 12 is marked “A”)
- DSLS 3D (100 μM ΔT) (NBD1): B (a value above 5 °C and less than or equal to 10 °C is marked “B”)

Compound: CC(Cc1cccc(C2CCCC(C)(C)CS(=O)(=O)CCc3c(c(F)cc4[nH]ccc34)Oc3ccc(F)c(c3)-c3nc2nn3C)c1)C(=O)O (stereo not shown) [Compound 114, 3-[3-(22,28-Difluoro-3,10,10-trimethyl-12,12-dioxo-24-oxa-12λ6-thia-3,4,19,30-tetrazapentacyclo[23.3.1.12,5.015,23.016,20]triaconta-1(29),2(30),4,15,17,20,22,25,27-nonaen-6-yl)phenyl]-2-methyl-propanoic Acid]
- TECC (AUC, 10 μM) (CFTR): B (a value between 12-20 is marked “B”)
- DSLS 3D (100 μM ΔT) (NBD1): C (a value greater than 10 °C and less than or equal to 25 °C is marked “C”)

Compound: CC(Cc1cccc(C2(C3SCCS3)CCCC(C)(C)CS(=O)(=O)CCc3c(c(F)cc4[nH]ccc34)Oc3ccc(F)c(c3)-c3nc2nn3C)c1)C(=O)O (stereo not shown) [Compound 115, 3-[3-[6-(1,3-Dithiolan-2-yl)-22,28-difluoro-3,10,10-trimethyl-12,12-dioxo-24-oxa-12λ6-thia-3,4,19,30-tetrazapentacyclo-[23.3.1.12,5.015,23.016,20]triaconta-1(29),2(30),4,15,17,20,22,25,27-nonaen-6-yl]phenyl]-2-methyl-propanoic Acid]
- TECC (AUC, 10 μM) (CFTR): A (a TECC value less than 12 is marked “A”)
- DSLS 3D (100 μM ΔT) (NBD1): C (a value greater than 10 °C and less than or equal to 25 °C is marked “C”)

Compound: Cn1nc2nc1-c1cc(ccc1F)Oc1c(F)cc3[nH]cnc3c1CCS(=O)(=O)CC(C)(C)CCCC2(C)c1cccc(CCC(=O)O)c1 (stereo not shown) [Compound 116, 3-[3-(22,28-Difluoro-3,6,10,10-tetramethyl-12,12-dioxo-24-oxa-12λ6-thia-3,4,17,19,30-pentazapentacyclo[23.3.1.12,5.015,23.016,20]triaconta-1(29),2(30),4,15,17,20,22,25,27-nonaen-6-yl)phenyl]propanoic Acid]
- TECC (AUC, 10 μM) (CFTR): A (a TECC value less than 12 is marked “A”)
- DSLS 3D (100 μM ΔT) (NBD1): C (a value greater than 10 °C and less than or equal to 25 °C is marked “C”)

Compound: CC(Cc1cccc(C2(C)CCCC(C)(C)CS(=O)(=O)CCc3c(c(F)cc4[nH]ccc34)Oc3cccc(c3)-c3nc2cn3C)c1)C(=O)O (stereo not shown) [Compound 117, 3-[3-(22-Fluoro-3,6,10,10-tetramethyl-12,12-dioxo-24-oxa-12λ6-thia-3,19,30-triazapentacyclo[23.3.1.12,5.015,23.016,20]triaconta-1(29),2(30),4,15,17,20,22,25,27-nonaen-6-yl)phenyl]-2-methyl-propanoic Acid]
- TECC (AUC, 10 μM) (CFTR): C (a value between 20 and 80 is marked “C”)
- DSLS 3D (100 μM ΔT) (NBD1): C (a value greater than 10 °C and less than or equal to 25 °C is marked “C”)

Compound: Cn1nc2nc1-c1cc(ccc1F)Oc1c(F)cc3[nH]ccc3c1CCS(=O)(=O)CC(C)(C)CCCC2(C)c1ccc2c(c1)CC(C(=O)O)C2 (stereo not shown) [Compound 128, 5-(22,28-Difluoro-3,6,10,10-tetramethyl-12,12-dioxo-24-oxa-12λ6-thia-3,4,19,30-tetrazapentacyclo[23.3.1.12,5.015,23.016,20]triaconta-1(29),2(30),4,15,17,20,22,25,27-nonaen-6-yl)indane-2-carboxylic Acid]
- TECC (AUC, 10 μM) (CFTR): A (a TECC value less than 12 is marked “A”)
- DSLS 3D (100 μM ΔT) (NBD1): C (a value greater than 10 °C and less than or equal to 25 °C is marked “C”)

From patent US12649750B2, “Macrocyclic compounds, compositions, and methods of using thereof” (Sionna Therapeutics Inc., priority 2022, dated 2026)
